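How tested: cells in 96-well plates exposed to compound for 48 hours at five concentrations. GI50 is the concentration that inhibits growth by half. The concentration for full growth arrest is given as TGI.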
Key:
Assay in all cases: inhibition of tumour cell growth, NCI panel, 48 h
SK-MEL-28 melanoma = system: SK-MEL-28 melanoma
SF-539 CNS = system: SF-539 CNS
PC-3 prostate = system: PC-3 prostate
SNB-19 CNS = system: SNB-19 CNS
NCI-H522 lung = system: NCI-H522 lung
HS 578T breast = system: HS 578T breast
RXF 393 renal = system: RXF 393 renal
NCI-H460 lung = system: NCI-H460 lung
SK-MEL-2 melanoma = system: SK-MEL-2 melanoma
EKVX NSCLC = system: EKVX NSCLC
HCT-116 colon = system: HCT-116 colon
NCI-H23 lung = system: NCI-H23 lung
SK-OV-3 ovarian = system: SK-OV-3 ovarian
SN12C renal = system: SN12C renal
CAKI-1 renal = system: CAKI-1 renal
TK-10 renal = system: TK-10 renal
OVCAR-8 ovarian = system: OVCAR-8 ovarian
OVCAR-3 ovarian = system: OVCAR-3 ovarian
HOP-62 NSCLC = system: HOP-62 NSCLC
786-0 renal = system: 786-0 renal
HOP-92 NSCLC = system: HOP-92 NSCLC
UACC-257 melanoma = system: UACC-257 melanoma
M14 melanoma = system: M14 melanoma
DU-145 prostate = system: DU-145 prostate
SK-MEL-5 melanoma = system: SK-MEL-5 melanoma
A498 renal = system: A498 renal
COLO 205 colon = system: COLO 205 colon
SF-295 CNS = system: SF-295 CNS
ACHN renal = system: ACHN renal
HCT-15 colon = system: HCT-15 colon
SF-268 CNS = system: SF-268 CNS
HCC-2998 colon = system: HCC-2998 colon
U251 CNS = system: U251 CNS
MCF7 breast = system: MCF7 breast
UO-31 renal = system: UO-31 renal
K-562 leukemia = system: K-562 leukemia
BT-549 breast = system: BT-549 breast
NCI-H226 lung = system: NCI-H226 lung
UACC-62 melanoma = system: UACC-62 melanoma
NCI/ADR-RES ovarian = system: NCI/ADR-RES ovarian
MOLT-4 leukemia = system: MOLT-4 leukemia
MDA-MB-231 breast = system: MDA-MB-231 breast
OVCAR-5 ovarian = system: OVCAR-5 ovarian
MALME-3M melanoma = system: MALME-3M melanoma
HL-60(TB) leukemia = system: HL-60(TB) leukemia
MDA-MB-435 = system: MDA-MB-435
A549 NSCLC = system: A549 NSCLC
SW-620 colon = system: SW-620 colon
IGROV1 ovarian = system: IGROV1 ovarian
LOX IMVI melanoma = system: LOX IMVI melanoma
KM12 colon = system: KM12 colon
HT29 colon = system: HT29 colon
RPMI-8226 leukemia = system: RPMI-8226 leukemia
CCRF-CEM leukemia = system: CCRF-CEM leukemia

CCCOc1cc2ccccc2cc1C(=O)Nc1nc(NC)c2c(ccc3nccc32)[nH]1
GI50 (SK-MEL-28 melanoma): 1140 nM
TGI (SK-MEL-28 melanoma): 2430 nM
GI50 (SF-539 CNS): 623 nM
TGI (SF-539 CNS): 2060 nM
GI50 (PC-3 prostate): 494 nM
TGI (PC-3 prostate): 2000 nM
GI50 (SNB-19 CNS): 701 nM
TGI (SNB-19 CNS): 2230 nM
GI50 (NCI-H522 lung): 44.9 nM
TGI (NCI-H522 lung): 219 nM
GI50 (HS 578T breast): 1420 nM
TGI (HS 578T breast): 3850 nM
GI50 (RXF 393 renal): 404 nM
TGI (RXF 393 renal): 1680 nM
GI50 (NCI-H460 lung): 348 nM
TGI (NCI-H460 lung): 1130 nM
GI50 (SK-MEL-2 melanoma): 325 nM
TGI (SK-MEL-2 melanoma): 1360 nM
GI50 (EKVX NSCLC): 611 nM
TGI (EKVX NSCLC): 2040 nM
GI50 (HCT-116 colon): 350 nM
TGI (HCT-116 colon): 1240 nM
GI50 (NCI-H23 lung): 1100 nM
TGI (NCI-H23 lung): 2530 nM
GI50 (SK-OV-3 ovarian): 473 nM
TGI (SK-OV-3 ovarian): 1780 nM
GI50 (SN12C renal): 1720 nM
TGI (SN12C renal): 3480 nM
GI50 (CAKI-1 renal): 1760 nM
TGI (CAKI-1 renal): 3820 nM
GI50 (TK-10 renal): 1360 nM
TGI (TK-10 renal): 2680 nM
GI50 (OVCAR-8 ovarian): 890 nM
TGI (OVCAR-8 ovarian): 2300 nM
GI50 (OVCAR-3 ovarian): 248 nM
TGI (OVCAR-3 ovarian): 1130 nM
GI50 (HOP-62 NSCLC): 779 nM
TGI (HOP-62 NSCLC): 2280 nM
GI50 (786-0 renal): 613 nM
TGI (786-0 renal): 2070 nM
GI50 (HOP-92 NSCLC): 1150 nM
TGI (HOP-92 NSCLC): 2510 nM
GI50 (UACC-257 melanoma): 1210 nM
TGI (UACC-257 melanoma): 2560 nM
GI50 (M14 melanoma): 444 nM
TGI (M14 melanoma): 1980 nM
GI50 (DU-145 prostate): 345 nM
TGI (DU-145 prostate): 1230 nM
GI50 (SK-MEL-5 melanoma): 994 nM
TGI (SK-MEL-5 melanoma): 2200 nM
GI50 (A498 renal): 359 nM
TGI (A498 renal): 1750 nM
GI50 (COLO 205 colon): 479 nM
TGI (COLO 205 colon): 1810 nM
GI50 (SF-295 CNS): 86.6 nM
TGI (SF-295 CNS): 1200 nM
GI50 (ACHN renal): 520 nM
TGI (ACHN renal): 1910 nM
GI50 (HCT-15 colon): 240 nM
TGI (HCT-15 colon): 1030 nM
GI50 (SF-268 CNS): 559 nM
TGI (SF-268 CNS): 2050 nM
GI50 (HCC-2998 colon): 1110 nM
TGI (HCC-2998 colon): 2410 nM
GI50 (U251 CNS): 521 nM
TGI (U251 CNS): 1740 nM
GI50 (MCF7 breast): 263 nM
TGI (MCF7 breast): 1310 nM
GI50 (UO-31 renal): 1170 nM
TGI (UO-31 renal): 2590 nM
GI50 (K-562 leukemia): 88.3 nM
TGI (K-562 leukemia): 912 nM
GI50 (BT-549 breast): 1450 nM
TGI (BT-549 breast): 3020 nM
GI50 (NCI-H226 lung): 1650 nM
TGI (NCI-H226 lung): 3800 nM
GI50 (UACC-62 melanoma): 556 nM
TGI (UACC-62 melanoma): 2120 nM
GI50 (NCI/ADR-RES ovarian): 550 nM
TGI (NCI/ADR-RES ovarian): 2480 nM
GI50 (MOLT-4 leukemia): 496 nM
TGI (MOLT-4 leukemia): 2320 nM
GI50 (MDA-MB-231 breast): 1340 nM
TGI (MDA-MB-231 breast): 2870 nM
GI50 (OVCAR-5 ovarian): 1400 nM
TGI (OVCAR-5 ovarian): 3000 nM
GI50 (MALME-3M melanoma): 1150 nM
TGI (MALME-3M melanoma): 2540 nM
GI50 (HL-60(TB) leukemia): 230 nM
TGI (HL-60(TB) leukemia): 611 nM
GI50 (MDA-MB-435): 40.1 nM
TGI (MDA-MB-435): 197 nM
GI50 (A549 NSCLC): 978 nM
TGI (A549 NSCLC): 2390 nM
GI50 (SW-620 colon): 383 nM
TGI (SW-620 colon): 1740 nM
GI50 (IGROV1 ovarian): 1170 nM
TGI (IGROV1 ovarian): 2710 nM
GI50 (LOX IMVI melanoma): 420 nM
TGI (LOX IMVI melanoma): 1760 nM
GI50 (KM12 colon): 295 nM
TGI (KM12 colon): 1460 nM
GI50 (HT29 colon): 208 nM
TGI (HT29 colon): 446 nM
GI50 (RPMI-8226 leukemia): 402 nM
TGI (RPMI-8226 leukemia): 1830 nM
GI50 (CCRF-CEM leukemia): 311 nM
TGI (CCRF-CEM leukemia): 1040 nM

From PubChem BioAssay (NCI)
